Columns and labels:
[1] = test system: barnyardgrass; experiment: Test C preemergence; format: in vivo, Echinochloa crusgalli; settings: for Barnyardgrass plant response rating: preemergence; for Plant response rating, Barnyardgrass: Preemergence
How it was run: (§1)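 Seeds sown in loam soil–sand blend received a directed preemergence soil spray of test chemical in non-phytotoxic solvent with surfactant; postemergence plants (2–10 cm, one- to two-leaf stage) were sprayed with the same formulation. Greenhouse-held 10 days, then visually rated for injury versus untreated controls, 0 (no effect) to 100 (complete control).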

[2] = test system: blackgrass; experiment: Test C preemergence; format: in vivo, Alopecurus myosuroides; settings: for Blackgrass plant response rating: preemergence; for Plant response rating, Blackgrass: Preemergence
How it was run: as §1

[3] = test system: corn; experiment: Test C preemergence; format: in vivo, Zea mays; settings: for Corn plant response rating: preemergence; for Plant response rating, Corn: Preemergence
How it was run: as §1

[4] = test system: green foxtail; experiment: Test C preemergence; format: in vivo, Setaria viridis; settings: for Foxtail, Green plant response rating: preemergence; for Plant response rating, Foxtail, Green: Preemergence
How it was run: as §1

[5] = test system: kochia; experiment: Test C preemergence; format: in vivo, Bassia scoparia; settings: for Kochia plant response rating: preemergence; for Plant response rating, Kochia: Preemergence
How it was run: as §1

[6] = test system: oat, wild; experiment: Test C preemergence; format: in vivo, Avena fatua; settings: for Oat, Wild plant response rating: preemergence; for Plant response rating, Oat, Wild: Preemergence
How it was run: as §1

[7] = test system: pigweed, palmer; experiment: Test C preemergence; format: in vivo, Amaranthus palmeri; settings: for Pigweed, Palmer plant response rating: preemergence; for Plant response rating, Pigweed, Palmer: Preemergence
How it was run: as §1

[8] = test system: ragweed; experiment: Test C preemergence; format: in vivo, Ambrosia artemisiifolia; settings: for Ragweed plant response rating: preemergence; for Plant response rating, Ragweed: Preemergence
How it was run: as §1

[9] = test system: ryegrass, Italian; experiment: Test C preemergence; format: in vivo, Lolium multiflorum; settings: for Ryegrass, Italian plant response rating: preemergence; for Plant response rating, Ryegrass, Italian: Preemergence
How it was run: as §1

[10] = test system: soybean; experiment: Test C preemergence; format: in vivo, Glycine max; settings: for Soybean plant response rating: preemergence; for Plant response rating, Soybean: Preemergence
How it was run: as §1

[11] = test system: wheat; experiment: Test C preemergence; format: in vivo, Triticum aestivum; settings: for Wheat plant response rating: preemergence; for Plant response rating, Wheat: Preemergence
How it was run: as §1

[12] = test system: barnyardgrass; experiment: Test C postemergence; format: in vivo, Echinochloa crusgalli; settings: 10 days
How it was run: as §1

[13] = test system: blackgrass; experiment: Test C postemergence; format: in vivo, Alopecurus myosuroides; settings: 10 days
How it was run: as §1

[14] = test system: corn; experiment: Test C postemergence; format: in vivo, Zea mays; settings: 10 days
How it was run: as §1

[15] = test system: green foxtail; experiment: Test C postemergence; format: in vivo, Setaria viridis; settings: 10 days
How it was run: as §1

[16] = test system: kochia; experiment: Test C postemergence; format: in vivo, Bassia scoparia; settings: 10 days
How it was run: as §1

[17] = test system: oat, wild; experiment: Test C postemergence; format: in vivo, Avena fatua; settings: 10 days
How it was run: as §1

[18] = test system: pigweed, palmer; experiment: Test C postemergence; format: in vivo, Amaranthus palmeri; settings: 10 days
How it was run: as §1

[19] = test system: ragweed; experiment: Test C postemergence; format: in vivo, Ambrosia artemisiifolia; settings: 10 days
How it was run: as §1

[20] = test system: ryegrass, Italian; experiment: Test C postemergence; format: in vivo, Lolium multiflorum; settings: 10 days
How it was run: as §1

[21] = test system: soybean; experiment: Test C postemergence; format: in vivo, Glycine max; settings: 10 days
How it was run: as §1

[22] = test system: wheat; experiment: Test C postemergence; format: in vivo, Triticum aestivum; settings: 10 days
How it was run: as §1

[23] = test system: galium; experiment: Test C postemergence; format: in vivo, Galium aparine; settings: 10 days
How it was run: as §1

[24] = test system: horseweed; experiment: Test C postemergence; format: in vivo, Erigeron canadensis; settings: 10 days
How it was run: as §1

[25] = test system: barnyardgrass; experiment: Test D flooded paddy test; format: in vivo, Echinochloa crus-galli; settings: 250 g ai/ha, applied to paddy water, visual rating after 13 to 14 days, scale 0 to 100 (0 no effect, 100 complete control)
How it was run: (§2)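 Rating scale 0–100 (0 no effect, 100 complete control), visual, versus controls. Readout at 13–14 days after in-water application to 2-leaf plants in pots flooded 3 cm deep.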

[26] = test system: ducksalad; experiment: Test D flooded paddy test; format: in vivo, Heteranthera limosa; settings: 250 g ai/ha, applied to paddy water, visual rating after 13 to 14 days, scale 0 to 100 (0 no effect, 100 complete control)
How it was run: as §2

[27] = test system: rice; experiment: Test D flooded paddy test; format: in vivo, Oryza sativa; settings: 250 g ai/ha, applied to paddy water, visual rating after 13 to 14 days, scale 0 to 100 (0 no effect, 100 complete control)
How it was run: as §2

[28] = test system: sedge, umbrella; experiment: Test D flooded paddy test; format: in vivo, Cyperus difformis; settings: 250 g ai/ha, applied to paddy water, visual rating after 13 to 14 days, scale 0 to 100 (0 no effect, 100 complete control)
How it was run: as §2

[29] = 500 g ai/ha, 0 to 100 scale (0 no effect, 100 complete control)
[30] = 125 g ai/ha, 0 to 100 scale, 0 no effect, 100 complete control
[31] = 500 g ai/ha, postemergence, 0 to 100 scale (0 no effect, 100 complete control)
[32] = Postemergence, 125 g ai/ha, 0 to 100 scale (0 no effect, 100 complete control)
[33] = Test C, 125 g ai/ha, 0 to 100 scale (0 no effect, 100 complete control)
[34] = 125 g ai/ha, postemergence, 0 to 100 scale, 0 no effect, 100 complete control
[35] = 500 g ai/ha, visual rating after 10 days, 0 to 100 scale (0 no effect, 100 complete control)
[36] = Postemergence, 500 g ai/ha, visual 0 to 100 scale (0 no effect, 100 complete control)

C[C@H]1CN(C(=O)c2cccc(-n3cnc(C4CC4)n3)c2)c2cccc(Cl)c2O1 [Compound 325]
Barnyardgrass plant response rating [1, 29]: 100
Plant response rating, Barnyardgrass [1, 30]: 40
Blackgrass plant response rating [2, 29]: 80
Plant response rating, Blackgrass [2, 30]: 60
Corn plant response rating [3, 29]: 10
Plant response rating, Corn [3, 30]: 10
Foxtail, Green plant response rating [4, 29]: 100
Plant response rating, Foxtail, Green [4, 30]: 100
Kochia plant response rating [5, 29]: 90
Plant response rating, Kochia [5, 30]: 40
Oat, Wild plant response rating [6, 29]: 90
Plant response rating, Oat, Wild [6, 30]: 60
Pigweed, Palmer plant response rating [7, 29]: 100
Plant response rating, Pigweed, Palmer [7, 30]: 100
Ragweed plant response rating [8, 29]: 70
Plant response rating, Ragweed [8, 30]: 20
Ryegrass, Italian plant response rating [9, 29]: 90
Plant response rating, Ryegrass, Italian [9, 30]: 60
Soybean plant response rating [10, 29]: 40
Plant response rating, Soybean [10, 30]: 40
Wheat plant response rating [11, 29]: 30
Plant response rating, Wheat [11, 30]: 10
Plant response rating, Barnyardgrass [12, 31]: 80
Plant response rating, Barnyardgrass [12, 32]: 40
Plant response rating, Blackgrass [13, 31]: 70
Plant response rating, Blackgrass [13, 32]: 10
Plant response rating, Corn [14, 31]: 50
Plant response rating, Corn [14, 32]: 30
Plant response rating, Foxtail, Green [15, 31]: 90
Plant response rating, Foxtail, Green [15, 32]: 60
Plant response rating, Kochia [16, 31]: 90
Plant response rating, Kochia [16, 32]: 90
Plant response rating, Oat, Wild [17, 31]: 70
Plant response rating, Oat, Wild [17, 32]: 10
Plant response rating, Pigweed, Palmer [18, 31]: 100
Plant response rating, Pigweed, Palmer [18, 32]: 90
Plant response rating, Ragweed [19, 31]: 70
Plant response rating, Ragweed [19, 32]: 50
Plant response rating, Ryegrass, Italian [20, 31]: 80
Plant response rating, Ryegrass, Italian [20, 32]: 30
Plant response rating, Soybean [21, 31]: 100
Plant response rating, Soybean [21, 32]: 100
Plant response rating, Wheat [22, 31]: 60
Plant response rating, Wheat [22, 32]: 20
Plant response rating, Galium [23, 31]: 100
Plant response rating, Galium [23, 32]: 100
Plant response rating, Horseweed [24, 31]: 60
Plant response rating, Horseweed [24, 32]: 0
Plant response rating, Barnyardgrass (Flood) [25]: 0
Plant response rating, Ducksalad (Flood) [26]: 35
Plant response rating, Rice (Flood) [27]: 0
Plant response rating, Sedge, Umbrella (Flood) [28]: 75

CCc1ncn(-c2ccc(C)c(C(=O)N3CC(C(F)(F)F)Oc4c(Cl)cccc43)c2)n1 (racemic) [Compound 290]
Barnyardgrass plant response rating [1, 29]: 100
Barnyardgrass plant response rating [1, 33]: 90
Blackgrass plant response rating [2, 29]: 70
Blackgrass plant response rating [2, 33]: 70
Corn plant response rating [3, 29]: 40
Corn plant response rating [3, 33]: 30
Foxtail, Green plant response rating [4, 29]: 100
Foxtail, Green plant response rating [4, 33]: 100
Kochia plant response rating [5, 29]: 90
Kochia plant response rating [5, 33]: 90
Oat, Wild plant response rating [6, 29]: 90
Oat, Wild plant response rating [6, 33]: 70
Pigweed, Palmer plant response rating [7, 29]: 100
Pigweed, Palmer plant response rating [7, 33]: 100
Ragweed plant response rating [8, 29]: 70
Ragweed plant response rating [8, 33]: 60
Ryegrass, Italian plant response rating [9, 29]: 100
Ryegrass, Italian plant response rating [9, 33]: 90
Soybean plant response rating [10, 29]: 80
Soybean plant response rating [10, 33]: 90
Wheat plant response rating [11, 29]: 50
Wheat plant response rating [11, 33]: 30
Plant response rating, Barnyardgrass [12, 34]: 50
Plant response rating, Barnyardgrass [12, 31]: 90
Plant response rating, Blackgrass [13, 34]: 10
Plant response rating, Blackgrass [13, 31]: 90
Plant response rating, Corn [14, 34]: 30
Plant response rating, Corn [14, 31]: 30
Plant response rating, Foxtail, Green [15, 34]: 80
Plant response rating, Foxtail, Green [15, 31]: 90
Plant response rating, Kochia [16, 34]: 80
Plant response rating, Kochia [16, 31]: 90
Plant response rating, Oat, Wild [17, 34]: 10
Plant response rating, Oat, Wild [17, 31]: 90
Plant response rating, Pigweed, Palmer [18, 34]: 100
Plant response rating, Pigweed, Palmer [18, 31]: 100
Plant response rating, Ragweed [19, 34]: 70
Plant response rating, Ragweed [19, 31]: 80
Plant response rating, Ryegrass, Italian [20, 34]: 50
Plant response rating, Ryegrass, Italian [20, 31]: 90
Plant response rating, Soybean [21, 34]: 100
Plant response rating, Soybean [21, 31]: 100
Plant response rating, Wheat [22, 34]: 30
Plant response rating, Wheat [22, 31]: 60
Plant response rating, Galium [23, 34]: 100
Plant response rating, Galium [23, 31]: 100
Plant response rating, Horseweed [24, 34]: 40
Plant response rating, Horseweed [24, 31]: 40
Plant response rating, Barnyardgrass (Flood) [25]: 10
Plant response rating, Ducksalad (Flood) [26]: 50
Plant response rating, Rice (Flood) [27]: 10
Plant response rating, Sedge, Umbrella (Flood) [28]: 85

CC(C)c1ncn(-c2ccc([S+]([O-])C(F)(F)F)c(C(=O)N3C[C@H](C)Oc4c(Cl)cccc43)c2)n1 (some centres unmarked) [Compound 191]
Plant response rating, Barnyardgrass [1, 35]: 0
Barnyardgrass plant response rating [1, 33]: 0
Plant response rating, Blackgrass [2, 35]: 20
Blackgrass plant response rating [2, 33]: 0
Plant response rating, Corn [3, 35]: 0
Corn plant response rating [3, 33]: 0
Plant response rating, Foxtail, Green [4, 35]: 0
Foxtail, Green plant response rating [4, 33]: 0
Plant response rating, Kochia [5, 35]: 0
Plant response rating, Oat, Wild [6, 35]: 0
Oat, Wild plant response rating [6, 33]: 0
Plant response rating, Pigweed, Palmer [7, 35]: 0
Pigweed, Palmer plant response rating [7, 33]: 0
Plant response rating, Ragweed [8, 35]: 0
Ragweed plant response rating [8, 33]: 0
Plant response rating, Ryegrass, Italian [9, 35]: 20
Ryegrass, Italian plant response rating [9, 33]: 0
Plant response rating, Soybean [10, 35]: 0
Soybean plant response rating [10, 33]: 0
Plant response rating, Wheat [11, 35]: 0
Wheat plant response rating [11, 33]: 0
Plant response rating, Barnyardgrass [12, 34]: 10
Plant response rating, Barnyardgrass [12, 36]: 10
Plant response rating, Blackgrass [13, 34]: 0
Plant response rating, Blackgrass [13, 36]: 0
Plant response rating, Corn [14, 34]: 0
Plant response rating, Corn [14, 36]: 0
Plant response rating, Foxtail, Green [15, 34]: 0
Plant response rating, Foxtail, Green [15, 36]: 0
Plant response rating, Kochia [16, 34]: 20
Plant response rating, Kochia [16, 36]: 20
Plant response rating, Oat, Wild [17, 34]: 0
Plant response rating, Oat, Wild [17, 36]: 0
Plant response rating, Pigweed, Palmer [18, 34]: 0
Plant response rating, Pigweed, Palmer [18, 36]: 30
Plant response rating, Ragweed [19, 34]: 0
Plant response rating, Ragweed [19, 36]: 0
Plant response rating, Ryegrass, Italian [20, 34]: 0
Plant response rating, Ryegrass, Italian [20, 36]: 0
Plant response rating, Soybean [21, 34]: 40
Plant response rating, Soybean [21, 36]: 90
Plant response rating, Wheat [22, 34]: 10
Plant response rating, Wheat [22, 36]: 10
Plant response rating, Galium [23, 34]: 0
Plant response rating, Galium [23, 36]: 50
Plant response rating, Horseweed [24, 34]: 0
Plant response rating, Horseweed [24, 36]: 0
Plant response rating, Barnyardgrass (Flood) [25]: 0
Plant response rating, Ducksalad (Flood) [26]: 0
Plant response rating, Rice (Flood) [27]: 0
Plant response rating, Sedge, Umbrella (Flood) [28]: 0
